Experimental findings from PMC5884652, “New antimicrobial peptide kills drug-resistant pathogens without detectable resistance” (Oncotarget, 2018) are described below.

The subject of series [1] is E. coli. Put plainly: Membrane depolarization (DiSC3-5). The format is cell-based. Conditions: ex 622 nm, em 670 nm. As for the experimental part: The membrane depolarizing activities of the peptides were evaluated in E. coli cells using the membrane potential-sensitive fluorescent dye DiSC3-5 (3,3′-dipropylthiadicarbocyanine iodide). Two batches of bacterial cells (experiment and control) were grown to mid-log phase at 37° C, harvested, and washed three times with buffer A (20 mM glucose, 5 mM HEPES [pH 7.2]). The cells were then resuspended to an A600 of 0.05 in buffer A containing 0.1 M KCl, after which DiSC3-5 was added to a final concentration of […] and the mixture was incubated for 60 min until the fluorescence level stabilized. The peptides were then added to bacterial suspensions, and the changes in fluorescence were continuously recorded (excitation at 622 nm and emission at 670 nm) for 30 min [36].

A further series has as its system P. aeruginosa 3904. Description: microbe, parasite or virus in culture. The format is cell-based, Pseudomonas aeruginosa. Conditions: pH 7.4 (II); 10 mM sodium phosphate buffer, 10% LB; 37° C, 24 h; mean of 3 experiments. An outline of the steps: (§1)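 Mid-log bacteria, 5 × 10^5 cfu/mL, 10 mM Na phosphate pH 5.5/7.4 + 10% medium; 2× dilutions of peptide 0.25–128 μM or antibiotic 0.25–256 μM; 37° C, 24 h; MIC by A600; n = 3, triplicate.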

The next series relates to P. aeruginosa 3543. Description: microbe, parasite or virus in culture. The class given is cell-based, Pseudomonas aeruginosa. Conditions: pH 7.4 (II); 10 mM sodium phosphate buffer, 10% LB; 37° C, 24 h; mean of 3 experiments. An outline of the steps:
as §1

The subject of another series is P. aeruginosa 4007. Description: microbe, parasite or virus in culture. The format is cell-based, Pseudomonas aeruginosa. To be noted: pH 7.4 (II); 10 mM sodium phosphate buffer, 10% LB; 37° C, 24 h; mean of 3 experiments. An outline of the steps:
as §1

A further series deals with P. aeruginosa 3547. Description: microbe, parasite or virus in culture. The class given is cell-based, Pseudomonas aeruginosa. Conditions: pH 7.4 (II); 10 mM sodium phosphate buffer, 10% LB; 37° C, 24 h; mean of 3 experiments. Summed up: as §1
The format of series [2] is in vivo. Conditions: 30 min; topical, 200 μg/mL, hairless mouse skin, fluorescence microscopy. The method, then: Topical delivery of rhodamine-labeled CSP-4 was evaluated on hairless mouse skin. Male hairless mice (6 weeks old) bred by Hoshino Laboratory Animals, Inc. (Bandou-shi, Japan) were purchased from Japan SLC, Inc. (Hamamatsu, Japan). After anesthetizing 5 mice per group (3 groups) with isoflurane, rhodamine-labeled CSP-4 (200 μg/mL) was spread on the hairless mouse skin. The skin was then examined for reactions every 5 min for 30 min. Skin tissue was collected and washed once in PBS, fixed in 4% paraformaldehyde for 12 h, dehydrated in 50% and 100% ethanol (2 h each), and washed 3 times in xylene substitute (1 h/wash). Paraffin-embedded samples were cut into 4 μm-thick sections (Microtome; Thermo Scientific, Waltham, MA, USA) and examined under a fluorescence microscope (IX71; Olympus; Tokyo, Japan).
Supplementary Figure 2: Topical application of rhodamine-labeled CSP-4 to the skin of hairless mouse. Mice were anesthetized with isoflurane and immobilized. Rhodamine-labeled CSP-4 (200 μg/ml) was then applied to the skin in a topical spread.
Diffusion of the peptide into the skin was assessed after 5, 10, 15, 20, 25 and 30 min.
Supplementary Figure 3: Observation of GUVs (PE/PG) with peptides. […] Morphological changes and calcein leakage from the GUVs was monitored. GUVs were examined under an inverted fluorescence phase contrast microscope, and images were recoded using a digital CCD camera. […]

A further series has as its system HaCaT cells. The class given is cell-based, human. To be noted: 400 μM rhodamine-labeled peptide, 24 h, 37° C, fluorescence microscope. As for the experimental part:
(§2) www.oncotarget.com Oncotarget, Supplementary Materials
(§3) New antimicrobial peptide kills drug-resistant pathogens without […]
(§4) Supplementary Figure 1: The hemolytic activities of peptides were tested using hRBCs, and cytotoxicity was tested using a human keratinocyte line (HaCaT cells). The cells were treated with 400 μM peptide in PBS buffer containing 8% hRBCs (v/v). The samples were then incubated with mild agitation for 1 h at 37° C, and then spun down at 800 × g for 10 min. Changes in hRBC morphology were examined under a microscope. Cells were treated with 400 μM rhodamine-labeled peptides. HaCaT cells were seeded at 4 × 10^3 cells/well and then incubated for 24 h, treated with rhodamine-labeled peptide and incubated for an additional 24 h at 37° C in a humidified chamber under an atmosphere containing 5% CO2. The cells were examined under an inverted fluorescence phase contrast microscope. Scale bar, 100 μm.
(§5) (1 picture or pasted object on this page, not shown here)

The subject of another series is hRBCs. The class given is cell-based, human. Conditions: 400 μM peptide, PBS buffer containing 8% hRBCs, 1 h, 37° C, microscope. The method, then:
as §2, §3, §4, §5

The subject of series [3] is E. coli. Put plainly: Time-kill kinetics. The format is cell-based. Conditions: pH 5.5 and pH 7.4, peptides at their respective MICs. As for the experimental part:
E. coli were grown overnight in LB broth (pH 5.5 or pH 7.4) and diluted to an OD600 of 0.05. CSP-4 was then added so that the final concentration was either the MIC or 1/2 MIC. E. coli cells were then sampled at 1-min intervals for the first 10 min and at 10-min intervals thereafter for 2 h. The cultures were then diluted 50-fold in PBS buffer and plated on LB agar. Colonies were counted after 24 h.

Ends that are not written are not given here.

In the case of FLRFIGSVKHGKGHLVHHIGVAL-NH2 [CSP-4], in the series on E. coli [1], the “Membrane depolarization (DisC3–5 fluorescence)” value is “dose-dependent disruption and resultant depolarization”. For the same substance, the MIC against P. aeruginosa 3904 was found to be 2 µM; against P. aeruginosa 3543, 4 µM; in the series on P. aeruginosa 4007, 2 µM; with P. aeruginosa 3547 it was 4 µM. Moreover, the “Depth of penetration into skin” value in [2] is 25–40 μm. Further, in the series on HaCaT cells, the “Binding to the cell membrane of HaCaT cells” value was “no detectable hemolytic or membrane-binding activity”. In addition, the “Membrane damage of hRBCs” value in the series on hRBCs is listed as “no detectable hemolytic or membrane-binding activity”. Also, the Killing kinetics entry with E. coli [3] is reported as “reduced bacterial growth faster than CSP”.
